Data as given in patent publication US20250074913A1, “PYRAZOLE DERIVATIVES AS STING AGONISTS” (Hoffmann-La Roche Inc., priority 2022, published 2025).

Test system: interferon regulatory factor (IRF) pathway in THP1-Dual™ cells
Assay: THP1-Dual reporter gene assay (Agonist_THP1_EC50)
Assay type: cell-based
Settings: Homo sapiens, 20-24 hrs compound treatment, Lucia luciferase (IRF) readout
Excerpt: This is the cellular reporter assay to evaluate compounds' agonism to interferon regulatory factor (IRF) pathway in THP1-Dual™ cells (InvivoGen, cat number thpd-nfis). THP1-Dual™ cells were derived from the human THP-1 monocyte cell line by stable integration lucia luciferase gene, a new secreted luciferase reporter gene, under the control of an ISG54 (interferon-stimulated gene) minimal promoter in conjunction with five interferon (IFN)-stimulated response elements. As a result, THP1-Dual™ cells allow the study of the IRF pathway, by assessing the activity of Lucia luciferase. Lucia luciferase protein is readily measurable in the cell culture supernatant when using QUANTI-Luc™ (InvivoGen, cat: rep-qlcg-500).
After 20-24 hrs compound treatment in THP1-Dual cells, the compounds' agonism to IRF pathway and cell toxicity were tested by measuring luminescence and OD 450 on an Envision plate reader.
On the day of experiment, 30 μL of test medium (RPMI 1640, 2 mM L-glutamine, 25 mM HEPES, […] heat-inactivated fetal bovine serum) was dispensed in a white 384-well plate (Grenier, cat: 781098) containing the serially diluted compounds (final 1% DMSO) transferred by the Echo550 machine. Then 30 μL of cell suspension (˜33,000 cells, 1.1×10^6 cells/mL) per well was added immediately by thermo multidrop combi dispenser for incubation 20-24 h at 37° C., […]. At the end of the incubation, 10 μL of cellular supernatant was transferred to proxiplate 384-plus plate for IRF detection, and then 10 μL of QUANTI-Luc™ Gold solution was added to the plate that proceeded with the measurement immediately. To detect cell viability, 30 μL of the CCK-8 working solution (Dojindo Molecular Technologies, cat: CK04-20) was added to the cell plate, which was Incubated for 2 hrs in the incubator to measure the absorbance at 450 nm using Envision.

| EC50 [nM] | Structure (SMILES) |
| --- | --- |
| 225 | Cc1nn(CCn2cncn2)c(-c2n[nH]c(-c3nc(C(N)=O)cc4c3cnn4C)n2)c1O [Example 39, 4-[3-[4-hydroxy-5-methyl-2-[2-(1,2,4-triazol-1-yl)ethyl]pyrazol-3-yl]-1H-1,2,4-triazol-5-yl]-1-methyl-pyrazolo[4,3-c]pyridine-6-carboxamide] |
| 15 | CCCCn1nc(C)c(O)c1-c1n[nH]c(-n2nc(C(N)=O)c3cc(C)ncc32)n1 [Example 43, 1-[3-(2-butyl-4-hydroxy-5-methyl-pyrazol-3-yl)-1H-1,2,4-triazol-5-yl]-5-methyl-pyrazolo[3,4-c]pyridine-3-carboxamide] |
| 34 | CC#CCCn1nc(C)c(O)c1-c1n[nH]c(-n2nc(C(N)=O)c3cc(C)ncc32)n1 [Example 51, 1-[3-(4-hydroxy-5-methyl-2-pent-3-ynyl-pyrazol-3-yl)-1H-1,2,4-triazol-5-yl]-5-methyl-pyrazolo[3,4-c]pyridine-3-carboxamide] |
| 30 | Cc1cn2c(C(N)=O)nc(-c3nc(-c4c(O)c(C)nn4CCc4nccs4)n[nH]3)c2cn1 [Example 90, 1-[3-[4-hydroxy-5-methyl-2-(2-thiazol-2-ylethyl)pyrazol-3-yl]-1H-1,2,4-triazol-5-yl]-6-methyl-imidazo[1,5-a]pyrazine-3-carboxamide] |
| 33 | Cc1cc2c(C(N)=O)nn(-c3nc(-c4c(O)c(C)nn4CCc4cccnc4)n[nH]3)c2cn1 [Example 47, 1-[3-[4-hydroxy-5-methyl-2-[2-(3-pyridyl)ethyl]pyrazol-3-yl]-1H-1,2,4-triazol-5-yl]-5-methyl-pyrazolo[3,4-c]pyridine-3-carboxamide] |
| 408 | CCn1nc(C)c(O)c1-c1n[nH]c(-c2nc(C(N)=O)n3cc(C)ccc23)n1 [Example 19, 1-[3-(2-ethyl-4-hydroxy-5-methyl-pyrazol-3-yl)-1H-1,2,4-triazol-5-yl]-6-methyl-imidazo[1,5-a]pyridine-3-carboxamide] |
| 64 | Cc1cc2c(C(N)=O)nn(-c3nc(-c4c(O)c(C)nn4CCc4ccccc4)nn3C)c2cn1 [Example 48, 1-[5-[4-hydroxy-5-methyl-2-(2-phenylethyl)pyrazol-3-yl]-2-methyl-1,2,4-triazol-3-yl]-5-methyl-pyrazolo[3,4-c]pyridine-3-carboxamide] |
| 202 | CCn1nc(C)c(O)c1-c1n[nH]c(-c2nc(C(N)=O)n3cc(C)ncc23)n1 [Example 1, 1-[3-(2-ethyl-4-hydroxy-5-methyl-pyrazol-3-yl)-1H-1,2,4-triazol-5-yl]-6-methyl-imidazo[1,5-a]pyrazine-3-carboxamide] |
| 222 | CCCn1nc(C)c(O)c1-c1nc(-c2nc(C(N)=O)n3cc(C)ncc23)n(C)n1 [Example 92, 1-[5-(4-hydroxy-5-methyl-2-propyl-pyrazol-3-yl)-2-methyl-1,2,4-triazol-3-yl]-6-methyl-imidazo[1,5-a]pyrazine-3-carboxamide] |
| 27 | Cc1cc2c(C(N)=O)nn(-c3nc(-c4c(O)c(C)nn4CCc4ccc(CO)cc4)n[nH]3)c2cn1 [Example 68, 1-[3-[4-hydroxy-2-[2-[4-(hydroxymethyl)phenyl]ethyl]-5-methyl-pyrazol-3-yl]-1H-1,2,4-triazol-5-yl]-5-methyl-pyrazolo[3,4-c]pyridine-3-carboxamide] |
| 46 | COCCCn1nc(C)c(O)c1-c1n[nH]c(-n2nc(C(N)=O)c3cc(C)ncc32)n1 [Example 44, 1-[3-[4-hydroxy-2-(3-methoxypropyl)-5-methyl-pyrazol-3-yl]-1H-1,2,4-triazol-5-yl]-5-methyl-pyrazolo[3,4-c]pyridine-3-carboxamide] |
| 65 | COCC#CCCn1nc(C)c(O)c1-c1n[nH]c(-n2nc(C(N)=O)c3cc(C)ncc32)n1 [Example 81, 1-[3-[4-hydroxy-2-(5-methoxypent-3-ynyl)-5-methyl-pyrazol-3-yl]-1H-1,2,4-triazol-5-yl]-5-methyl-pyrazolo[3,4-c]pyridine-3-carboxamide] |
| 62 | Cc1cn2c(C(N)=O)c(F)c(-c3nc(-c4c(O)c(C)nn4CCc4ccccc4)n[nH]3)c2cn1 [Example 57, 7-fluoro-8-[3-[4-hydroxy-5-methyl-2-(2-phenylethyl)pyrazol-3-yl]-1H-1,2,4-triazol-5-yl]-3-methyl-pyrrolo[1,2-a]pyrazine-6-carboxamide] |
| 135 | Cc1cc2c(C(N)=O)nn(-c3nc(-c4c(O)c(C)nn4C4CC4)n[nH]3)c2cn1 [Example 33, 1-[3-(2-cyclopropyl-4-hydroxy-5-methyl-pyrazol-3-yl)-1H-1,2,4-triazol-5-yl]-5-methyl-pyrazolo[3,4-c]pyridine-3-carboxamide] |
| 93 | COc1ccc(CCn2nc(C)c(O)c2-c2n[nH]c(-c3c(F)c(C(N)=O)n4cc(C)ncc34)n2)cc1 [Example 69, 7-fluoro-8-[3-[4-hydroxy-2-[2-(4-methoxyphenyl)ethyl]-5-methyl-pyrazol-3-yl]-1H-1,2,4-triazol-5-yl]-3-methyl-pyrrolo[1,2-a]pyrazine-6-carboxamide] |
| 31 | COc1cccc(CCn2nc(C)c(O)c2-c2n[nH]c(-n3nc(C(N)=O)c4cc(C)ncc43)n2)c1 [Example 54, 1-[3-[4-hydroxy-2-[2-(3-methoxyphenyl)ethyl]-5-methyl-pyrazol-3-yl]-1H-1,2,4-triazol-5-yl]-5-methyl-pyrazolo[3,4-c]pyridine-3-carboxamide] |
| 240 | Cc1nn(CCn2ccnn2)c(-c2n[nH]c(-c3nc(C(N)=O)cc4c3cnn4C)n2)c1O [Example 36, 4-[3-[4-hydroxy-5-methyl-2-[2-(triazol-1-yl)ethyl]pyrazol-3-yl]-1H-1,2,4-triazol-5-yl]-1-methyl-pyrazolo[4,3-c]pyridine-6-carboxamide] |
| 321 | Cc1cn2c(C(N)=O)c(F)c(-c3nc(-c4c(O)c(C)nn4CCC#N)n[nH]3)c2cn1 [Example 30, 8-[3-[2-(2-cyanoethyl)-4-hydroxy-5-methyl-pyrazol-3-yl]-1H-1,2,4-triazol-5-yl]-7-fluoro-3-methyl-pyrrolo[1,2-a]pyrazine-6-carboxamide] |
| 39 | Cc1cn2c(C(N)=O)c(F)c(-c3nc(-c4c(O)c(C)nn4CCc4cccnc4)n[nH]3)c2cn1 [Example 73, 7-fluoro-8-[3-[4-hydroxy-5-methyl-2-[2-(3-pyridyl)ethyl]pyrazol-3-yl]-1H-1,2,4-triazol-5-yl]-3-methyl-pyrrolo[1,2-a]pyrazine-6-carboxamide] |
| 17 | COCc1cccc(CCn2nc(C)c(O)c2-c2n[nH]c(-n3nc(C(N)=O)c4cc(C)ncc43)n2)c1 [Example 65, 1-[3-[4-hydroxy-2-[2-[3-(methoxymethyl)phenyl]ethyl]-5-methyl-pyrazol-3-yl]-11H-1,2,4-triazol-5-yl]-5-methyl-pyrazolo[3,4-c]pyridine-3-carboxamide] |
| 58 | CCCCn1nc(C)c(O)c1-c1nc(-n2nc(C(N)=O)c3cc(C)ncc32)n(C)n1 [Example 49, 1-[5-(2-butyl-4-hydroxy-5-methyl-pyrazol-3-yl)-2-methyl-1,2,4-triazol-3-yl]-5-methyl-pyrazolo[3,4-c]pyridine-3-carboxamide] |
| 134 | CCn1nc(C)c(O)c1-c1nc(-c2c(F)c(C(N)=O)n3cc(C)ncc23)co1 [Example 28, 8-[2-(2-ethyl-4-hydroxy-5-methyl-pyrazol-3-yl)oxazol-4-yl]-7-fluoro-3-methyl-pyrrolo[1,2-a]pyrazine-6-carboxamide] |
| 47 | Cc1cc2c(C(N)=O)nn(-c3nc(-c4c(O)c(C)nn4CCc4ccc(C#N)cc4)n[nH]3)c2cn1 [Example 61, 1-[3-[2-[2-(4-cyanophenyl)ethyl]-4-hydroxy-5-methyl-pyrazol-3-yl]-1H-1,2,4-triazol-5-yl]-5-methyl-pyrazolo[3,4-c]pyridine-3-carboxamide] |
| 14 | Cc1nn(CCC(F)F)c(-c2n[nH]c(-c3nc(C(N)=O)cc4c3cnn4C)n2)c1O [Example 37, 4-[3-[2-(3,3-difluoropropyl)-4-hydroxy-5-methyl-pyrazol-3-yl]-1H-1,2,4-triazol-5-yl]-1-methyl-pyrazolo[4,3-c]pyridine-6-carboxamide] |
| 50 | Cc1nn(CCC#N)c(-c2n[nH]c(-c3nc(C(N)=O)cc4c3cnn4C)n2)c1O [Example 25, 4-[3-[2-(2-cyanoethyl)-4-hydroxy-5-methyl-pyrazol-3-yl]-1H-1,2,4-triazol-5-yl]-1-methyl-pyrazolo[4,3-c]pyridine-6-carboxamide] |
| 170 | Cc1cc2c(C(N)=O)nn(-c3coc(-c4c(O)c(C)nn4CCc4cccnc4)n3)c2cn1 [Example 74, 1-(2-(4-hydroxy-3-methyl-1-(2-(pyridin-3-yl)ethyl)-1H-pyrazol-5-yl)oxazol-4-yl)-5-methyl-1H-pyrazolo[3,4-c]pyridine-3-carboxamide] |
| 53 | Cc1cn2c(C(N)=O)nc(-c3nc(-c4c(O)c(C)nn4CCc4ccc(CN5CCOCC5)cc4)n[nH]3)c2cn1 [Example 87, 1-[3-[4-hydroxy-5-methyl-2-[2-[4-(morpholinomethyl)phenyl]ethyl]pyrazol-3-yl]-1H-1,2,4-triazol-5-yl]-6-methyl-imidazo[1,5-a]pyrazine-3-carboxamide] |
